Measurements published in US20240150377A1, “MODULATORS OF CYSTIC FIBROSIS TRANSMEMBRANE CONDUCTANCE REGULATOR” (VERTEX PHARMACEUTICALS INCORPORATED, priority 2020, published 2024).

Target: T1, CFTR (Homo sapiens, UniProt P13569, DEL508-508)
T1 construct: endogenous in cells; host or cells: primary human bronchial epithelial cells from CF subjects (F508del/MF-HBE), differentiated at air-liquid interface
Assay: HBE2 assay: Ussing chamber assay of CFTR-mediated short-circuit currents
Format: cell-based
Details: F508del/MF-HBE cells, with 44 nM potentiator, 18-24 hours, 20% human serum; for Emax: read-out: HBE2 Max activity (%)
How it was run: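 F508del/MF-HBE cultured >14 days at air-liquid interface, mounted in Ussing chambers; transepithelial short-circuit current recorded under voltage clamp (Vhold=0 mV) at 37 °C. CFTR-mediated ISC (μA/cm^2) taken as peak forskolin response relative to steady-state current after inhibition; corrector activity assessed this way.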

T1 sequence (P13569 with tags, fused parts or gaps DEL508-508): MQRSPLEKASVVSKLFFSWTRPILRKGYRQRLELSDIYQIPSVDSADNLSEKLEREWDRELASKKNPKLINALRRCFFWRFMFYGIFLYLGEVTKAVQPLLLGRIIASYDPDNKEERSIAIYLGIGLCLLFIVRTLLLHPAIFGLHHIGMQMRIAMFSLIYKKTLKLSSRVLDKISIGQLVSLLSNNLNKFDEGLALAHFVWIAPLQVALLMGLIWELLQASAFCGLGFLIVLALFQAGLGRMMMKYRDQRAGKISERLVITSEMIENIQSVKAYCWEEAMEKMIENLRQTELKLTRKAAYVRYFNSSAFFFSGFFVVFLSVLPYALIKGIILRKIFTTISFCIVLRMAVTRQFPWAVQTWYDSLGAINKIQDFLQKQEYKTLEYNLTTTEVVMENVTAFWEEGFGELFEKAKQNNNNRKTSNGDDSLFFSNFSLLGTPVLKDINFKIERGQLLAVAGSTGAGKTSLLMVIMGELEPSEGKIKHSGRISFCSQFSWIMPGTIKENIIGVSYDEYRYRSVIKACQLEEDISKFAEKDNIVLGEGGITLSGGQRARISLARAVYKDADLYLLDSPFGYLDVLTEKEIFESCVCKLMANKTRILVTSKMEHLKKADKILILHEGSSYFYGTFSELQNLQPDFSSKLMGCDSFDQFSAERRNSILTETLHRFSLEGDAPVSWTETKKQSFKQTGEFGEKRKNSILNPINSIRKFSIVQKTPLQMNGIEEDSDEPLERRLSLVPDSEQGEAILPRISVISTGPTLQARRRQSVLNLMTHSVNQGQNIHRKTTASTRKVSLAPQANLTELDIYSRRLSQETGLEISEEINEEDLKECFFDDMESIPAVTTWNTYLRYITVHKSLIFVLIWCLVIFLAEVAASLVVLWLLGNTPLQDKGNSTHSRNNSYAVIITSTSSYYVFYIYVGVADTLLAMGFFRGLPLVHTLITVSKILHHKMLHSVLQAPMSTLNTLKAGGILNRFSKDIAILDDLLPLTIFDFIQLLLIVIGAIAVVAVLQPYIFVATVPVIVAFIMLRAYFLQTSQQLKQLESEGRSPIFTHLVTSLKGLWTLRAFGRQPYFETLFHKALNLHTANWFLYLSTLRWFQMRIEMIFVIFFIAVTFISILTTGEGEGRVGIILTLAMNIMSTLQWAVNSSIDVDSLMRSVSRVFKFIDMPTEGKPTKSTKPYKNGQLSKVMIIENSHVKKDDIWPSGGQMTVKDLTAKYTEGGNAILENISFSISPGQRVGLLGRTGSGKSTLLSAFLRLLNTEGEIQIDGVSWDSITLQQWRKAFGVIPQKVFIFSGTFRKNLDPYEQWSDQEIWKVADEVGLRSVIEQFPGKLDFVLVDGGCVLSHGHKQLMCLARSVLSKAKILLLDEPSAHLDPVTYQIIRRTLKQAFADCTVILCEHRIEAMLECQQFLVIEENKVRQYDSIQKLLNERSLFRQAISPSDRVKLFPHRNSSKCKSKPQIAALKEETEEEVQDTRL

Row | HBE2 Activity at 3 μM (%) (3 μM) | HBE2 Activity at 3 μM (%) (3 μM corrector) | SMILES | further results
1 | +++ (+++ is >60+) | – | Cc1cccc(C)c1-c1cc2nc(n1)NS(=O)(=O)c1cccc(c1)C(=O)N(Cc1cncc(N3CCCC3c3ccnn3C)n1)[C@H](CC(C)(C)C)CO2 (some centres unmarked) [Compound 1606] | –
2 | +++ (+++ is >60+) | – | Cc1cccc(C)c1-c1cc2nc(n1)NS(=O)(=O)c1cccc(c1)C(=O)N(Cc1ccc(N3CC(C)(C)C3)cn1)[C@H](CC(C)(C)C)CO2 [Compound 1655] | –
3 | – | +++ (+++ is >60+) | COC1(CN(C)c2cncc(CN3C(=O)c4cccc(c4)S(=O)(=O)Nc4nc(cc(-c5c(C)cccc5C)n4)OC[C@H]3CC(C)(C)C)n2)CCC1 [Compound 1758] | –
4 | – | +++ (+++ is >60+) | CCN(c1cncc(CN2C(=O)c3cccc(c3)S(=O)(=O)Nc3nc(cc(-c4c(C)cccc4C)n3)OC[C@H]2CCC(C)C)n1)C1CCC1 [Compound 1764] | –
5 | +++ (+++ is >60+) | – | CC[C@@H](C)Oc1cnc(CN2C(=O)c3cccc(c3)S(=O)(=O)Nc3nc(cc(-c4c(C)cccc4C)n3)OC[C@H]2CC2(C)CC2)nc1 [Compound 1555] | –
6 | – | +++ (+++ is >60+) | COC[C@@H](C)N(C)c1cncc(CN2C(=O)c3cccc(c3)S(=O)(=O)Nc3nc(cc(-c4c(C)cccc4C)n3)OC[C@H]2CCC(C)(C)C)n1 [Compound 1851] | –
7 | – | +++ (+++ is >60+) | Cc1cccc(C)c1-c1cc2nc(n1)NS(=O)(=O)c1cccc(c1)C(=O)N(Cc1cncc(N3CC[C@H]3C)n1)[C@H](CC(C)(C)F)CO2 [Compound 1801] | –
8 | +++ (+++ is >60+) | – | Cc1cccc(C)c1-c1cc2nc(n1)NS(=O)(=O)c1cccc(c1)C(=O)N(Cc1cncc(N(C)CC3(C)COC3)n1)[C@H](CC(C)(C)C)CO2 [Compound 1613] | –
9 | – | +++ (+++ is >60+) | Cc1cccc(C)c1-c1cc2nc(n1)NS(=O)(=O)c1cccc(c1)C(=O)N(Cc1cncc(N(C)C)n1)[C@H](CCC(C)(C)C)CO2 [Compound 1806] | –
10 | +++ (+++ is >60+) | – | COCC1CC2(CCN2c2cncc(CN3C(=O)c4cccc(c4)S(=O)(=O)Nc4nc(cc(-c5c(C)cccc5C)n4)OC[C@H]3CC(C)(C)C)n2)C1 (some centres unmarked) [Compound 1706] | –
11 | +++ (+++ is >60+) | – | Cc1cccc(C)c1-c1cc2nc(n1)NS(=O)(=O)c1cccc(c1)C(=O)N(Cc1ncc(OC(C)C)cn1)[C@H](CC1CCC1)[C@@H](C)O2 [Compound 1568] | –
12 | – | ++ (++ is 30-60%) | Cc1cccc(C)c1-c1cc2nc(n1)NS(=O)(=O)c1cccc(c1)C(=O)N(Cc1cncc(N(C)C3CCC3)n1)[C@@H]1CCN(CC(C)(C)C)CC1O2 (stereo in doubt) [Compound 1765] | –
13 | +++ (+++ is >60+) | – | Cc1cccc(C)c1-c1cc2nc(n1)NS(=O)(=O)c1cccc(c1)C(=O)N(Cc1cncc(N3CCC[C@H]4COC[C@H]43)n1)[C@H](CC(C)(C)C)CO2 (stereo in doubt) [Compound 1679] | –
14 | – | +++ (+++ is >60+) | Cc1cccc(C)c1-c1cc2nc(n1)NS(=O)(=O)c1cccc(c1)C(=O)N(Cc1cncc(N(C)C3CCCC3)n1)[C@H](COC(C)C)CO2 [Compound 1948] | –
15 | – | ++ (++ is 30-60%) | Cc1cccc(C)c1-c1cc2nc(n1)NS(=O)(=O)c1cccc(c1)C(=O)N(Cc1cncc(N(C)C3CCC3)n1)[C@H](CC1CC(C)(C)C1)CO2 (stereo in doubt) [Compound 1340, 12-[[6-[cyclobutyl(methyl)amino]pyrazin-2-yl]methyl]-11-[(3,3-dimethylcyclobutyl)methyl]-6-(2,6-dimethylphenyl)-2,2-dioxo-9-oxa-2λ^6-thia-3,5,12,19-tetrazatricyclo[12.3.1.14,8]nonadeca-1(18),4(19),5,7,14,16-hexaen-13-one] | –
16 | – | +++ (+++ is >60+) | Cc1cccc(C)c1-c1cc2nc(n1)NS(=O)(=O)c1cccc(c1)C(=O)N(Cc1cnc3cc(C(C)C)n(C)c3n1)[C@H](C[C@H]1CCCOC1)CO2 (stereo in doubt) [Compound 1932] | –
17 | – | +++ (+++ is >60+) | COC[C@H]1CCCCN1c1cncc(CN2C(=O)c3cccc(c3)S(=O)(=O)Nc3nc(cc(-c4c(C)cccc4C)n3)OC[C@H]2CCC(C)(C)C)n1 [Compound 1857] | –
18 | – | +++ (+++ is >60+) | Cc1cccc(C)c1-c1cc2nc(n1)NS(=O)(=O)c1cccc(c1)C(=O)N(Cc1cnc3cc(C(C)C)n(C)c3n1)[C@H](CC(C)(C)F)CO2 [Compound 1819] | –
19 | – | +++ (+++ is >60+) | Cc1cccc(C)c1-c1cc2nc(n1)NS(=O)(=O)c1cccc(c1)C(=O)N(Cc1cncc(N(C)CC(C)(C)C)n1)[C@H](CCC(C)C)CO2 [Compound 1795] | –
20 | +++ (+++ is >60+) | – | Cc1cccc(C)c1-c1cc2nc(n1)NS(=O)(=O)c1cccc(c1)C(=O)N(Cc1cncc(N(C)C3CCC3)n1)[C@H](CC(C)C)CO2 [Compound 1671] | EC50: < 1000 nM; Emax: > 60%
21 | – | +++ (+++ is >60+) | Cc1cccc(C)c1-c1cc2nc(n1)NS(=O)(=O)c1cccc(c1)C(=O)N(Cc1cnc3cc(C(C)C)n(C)c3n1)[C@H](CC(C)(C)C(F)(F)F)CO2 [Compound 1836] | –

Row | HBE2 Activity at 3 μM (%) (3 μM) | HBE2 Activity at 3 μM (%) (3 μM corrector) | SMILES | further results
22 | – | +++ (+++ is >60+) | Cc1cccc(C)c1-c1cc2nc(n1)NS(=O)(=O)c1cccc(c1)C(=O)N(Cc1cncc(N(C)CC(C)(C)C)n1)[C@H](CCC(C)(C)C)CO2 [Compound 1739] | –
23 | +++ (+++ is >60+) | – | CC[C@@H](C)N(C)c1cncc(CN2C(=O)c3cccc(c3)S(=O)(=O)Nc3nc(cc(-c4c(C)cccc4C)n3)OC[C@H]2CC(C)(C)C)n1 (stereo in doubt) [Compound 1672] | EC50: < 1000 nM; Emax: > 60%
24 | – | +++ (+++ is >60+) | Cc1cccc(C)c1-c1cc2nc(n1)NS(=O)(=O)c1cccc(c1)C(=O)N(Cc1cncc(N(C)CC3(C)CC3)n1)[C@H](CC(C)(C)C)CO2 [Compound 1757] | –
25 | – | +++ (+++ is >60+) | CC[C@H]1CCN1c1cncc(CN2C(=O)c3cccc(c3)S(=O)(=O)Nc3nc(cc(-c4c(C)cccc4C)n3)OC[C@H]2CCC(C)(C)C)n1 [Compound 1864] | –
26 | +++ (+++ is >60+) | – | Cc1cccc(C)c1-c1cc2nc(n1)NS(=O)(=O)c1cccc(c1)C(=O)N(Cc1cncc(N3CCC4OCCC43)n1)[C@H](CC(C)(C)C)CO2 (some centres unmarked) [Compound 1643] | –
27 | +++ (+++ is >60+) | – | Cc1cccc(C)c1-c1cc2nc(n1)NS(=O)(=O)c1cccc(c1)C(=O)N(Cc1cnc(N(C)C3CCC3)cn1)[C@H](CC(C)(C)C)CO2 [Compound 1612] | –
28 | +++ (+++ is >60+) | – | CO[C@@H]1CC[C@@H]1N(C)c1cncc(CN2C(=O)c3cccc(c3)S(=O)(=O)Nc3nc(cc(-c4c(C)cccc4C)n3)OC[C@H]2CC(C)(C)C)n1 (stereo in doubt) [Compound 1607] | –
29 | – | +++ (+++ is >60+) | Cc1cccc(C)c1-c1cc2nc(n1)NS(=O)(=O)c1cccc(c1)C(=O)N(Cc1cncc(N3CCC34CCC4)n1)[C@H](CCC(C)(C)C)CO2 [Compound 1837] | –
30 | – | +++ (+++ is >60+) | COC[C@@H]1CCN1c1cncc(CN2C(=O)c3cccc(c3)S(=O)(=O)Nc3nc(cc(-c4c(C)cccc4C)n3)OC[C@H]2CC2CC2)n1 [Compound 1786] | –
31 | +++ (+++ is >60+) | – | Cc1cccc(C)c1-c1cc2nc(n1)NS(=O)(=O)c1cccc(c1)C(=O)N(Cc1ccn([C@H](C)C3CCOCC3)n1)[C@H](CC(C)(C)C)CO2 (stereo in doubt) [Compound 1456] | –
32 | ++ (++ is 30-60%) | – | Cc1cccc(C)c1-c1cc2nc(n1)NS(=N)(=O)c1cccc(c1)C(=O)N(Cc1ncc(OC(C)C)cn1)[C@H](CC(C)(C)C)CO2 (some centres unmarked) [Compound 1574] | –
33 | – | +++ (+++ is >60+) | COCC1(CN(C)c2cncc(CN3C(=O)c4cccc(c4)S(=O)(=O)Nc4nc(cc(-c5c(C)cccc5C)n4)OC[C@H]3CCC(C)(C)C)n2)CC1 [Compound 1876] | –
34 | +++ (+++ is >60+) | – | Cc1cccc(C)c1-c1cc2nc(n1)NS(=O)(=O)c1cccc(c1)C(=O)N(Cc1cncc(N3CCC[C@H]4CC[C@H]43)n1)[C@H](CC(C)(C)C)CO2 (single isomer, unassigned) [Compound 1315] | EC50: < 1000 nM; Emax: > 60%
35 | – | +++ (+++ is >60+) | Cc1cccc(C)c1-c1cc2nc(n1)NS(=O)(=O)c1cccc(c1)C(=O)N(Cc1cncc(N3CCC[C@H]3C3CC3)n1)[C@H](CCC(C)(C)C)CO2 [Compound 1813] | –
36 | – | +++ (+++ is >60+) | Cc1cccc(C)c1-c1cc2nc(n1)NS(=O)(=O)c1cccc(c1)C(=O)N(Cc1cncc(N(C)C3CC(F)(F)C3)n1)[C@H](CCC(C)(C)C)CO2 [Compound 1815] | –
37 | – | +++ (+++ is >60+) | Cc1cccc(C)c1-c1cc2nc(n1)NS(=O)(=O)c1cccc(c1)C(=O)N(Cc1cncc(N3CCCC[C@H]3C)n1)[C@H](CC1CCCCC1)CO2 [Compound 1822] | –
38 | – | +++ (+++ is >60+) | Cc1cccc(C)c1-c1cc2nc(n1)NS(=O)(=O)c1cccc(c1)C(=O)N(Cc1cncc(N3CC[C@H]4CC[C@H]43)n1)[C@H](CCC(C)(C)C)CO2 [Compound 1854] | –
39 | +++ (+++ is >60+) | – | Cc1cccc(C)c1-c1cc2nc(n1)NS(=O)(=O)c1cccc(c1)C(=O)N(Cc1ncc(N3CCC(C)(C)C3)cn1)[C@H](CC(C)(C)F)CO2 [Compound 1564] | –
40 | – | ++ (++ is 30-60%) | CCC(C)(C)C[C@@H]1COc2cc(-c3c(C)cccc3C)nc(n2)NS(=O)(=O)c2cccc(c2)C(=O)N1Cc1cncc(N2CC[C@H]2C)n1 [Compound 1860] | –
41 | +++ (+++ is >60+) | – | Cc1cccc(C)c1-c1cc2nc(n1)NS(=O)(=O)c1cccc(c1)C(=O)N(Cc1ncc(N3CC(C)(C)C3)cn1)[C@H](CCC1CC1)CO2 [Compound 1595] | –
